The results in this text go back to patent US8691859B2 (priority 2005, dated 2014).

≈ marks a conversion by molar mass, not a printed value.

Experiment [1] deals with B. anthracis GFP sterne vegetative cells. The experiment in a line: microbe, parasite or virus in culture. Type of experiment: cell-based. The note with it: for MIC: Bacillus anthracis, read-out: MIC B. anthracis vegetative cells.
The test system of experiment [2] is B. anthracis GFP sterne spores. The experiment in a line: microbe, parasite or virus in culture. Type of experiment: cell-based. The note with it: for MIC: Bacillus anthracis, read-out: MIC B. anthracis spores.
For the next experiment, the target named is anthrax lethal factor (Bacillus anthracis, UniProt P15917). Type of experiment: biochemical.
anthrax lethal factor, sequence (P15917 34-809 limits assumed): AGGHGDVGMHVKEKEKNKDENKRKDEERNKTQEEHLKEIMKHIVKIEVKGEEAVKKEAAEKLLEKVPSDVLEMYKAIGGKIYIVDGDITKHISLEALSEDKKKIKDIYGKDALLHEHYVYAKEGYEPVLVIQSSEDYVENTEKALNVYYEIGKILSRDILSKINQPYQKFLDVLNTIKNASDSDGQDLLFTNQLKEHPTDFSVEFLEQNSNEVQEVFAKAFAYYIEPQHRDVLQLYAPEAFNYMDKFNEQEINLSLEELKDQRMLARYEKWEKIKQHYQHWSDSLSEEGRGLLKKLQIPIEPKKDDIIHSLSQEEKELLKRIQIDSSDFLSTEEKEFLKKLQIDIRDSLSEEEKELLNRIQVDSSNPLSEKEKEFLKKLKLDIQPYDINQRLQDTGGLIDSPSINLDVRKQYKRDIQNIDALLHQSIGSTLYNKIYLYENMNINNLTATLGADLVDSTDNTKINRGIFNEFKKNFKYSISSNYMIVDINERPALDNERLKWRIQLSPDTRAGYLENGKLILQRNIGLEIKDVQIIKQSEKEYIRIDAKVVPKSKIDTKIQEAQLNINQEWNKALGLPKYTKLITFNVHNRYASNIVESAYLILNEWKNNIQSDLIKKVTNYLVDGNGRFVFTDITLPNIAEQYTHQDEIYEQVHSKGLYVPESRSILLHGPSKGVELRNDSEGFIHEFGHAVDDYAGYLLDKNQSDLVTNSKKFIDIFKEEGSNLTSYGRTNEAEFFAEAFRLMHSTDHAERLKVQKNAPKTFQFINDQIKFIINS

In the case of `C/C(=C\c1cc2cc(C(=N)N)ccc2o1)c1cc2cc(C(=N)N)ccc2o1` [NSC 266476, 2-[(E)-1-(5-carbamimidoylbenzofuran-2-yl)prop-1-en-2-yl]benzofuran-5-carboximidamide], the MIC in experiment [1] and in experiment [2] was greater than 17.2 µg/mL each time. In addition, at anthrax lethal factor, the “inhibition of the protease activity of anthrax lethal factor” value is recorded as “inhibit”.

Turning to `N=C(N)c1ccc2oc(/C=C/c3cc4ccc(C(=N)N)cc4o3)cc2c1` [NSC 294202, 2-[(E)-2-(5-carbamimidoylbenzofuran-2-yl)ethenyl]benzofuran-6-carboximidamide], the MIC in experiment [1] and in experiment [2] was greater than 16.7 µg/mL each time.

For the compound `N=C(N)c1ccc(-c2cc(-c3ccc(C(=N)N)cc3)on2)cc1` [NSC 240900, 4-[3-(4-carbamimidoylphenyl)oxazol-5-yl]benzenecarboximidamide], the MIC in experiment [1] and in experiment [2] was greater than 15.1 µg/mL each time.

On to `C(=C\c1cc2cc(C3=NCCN3)ccc2o1)/c1cc2cc(C3=NCCN3)ccc2o1` [NSC 278999, 2-[2-[(E)-2-[5-(4,5-dihydro-1H-imidazol-2-yl)benzofuran-2-yl]ethenyl]benzofuran-5-yl]-4,5-dihydro-1H-imidazole], for which the MIC in experiment [1] and in experiment [2] was greater than 18.8 µg/mL each time.

Take `Cc1cc2nc(C=Cc3nc4cc(C)c(C)cc4[nH]3)[nH]c2cc1C` [NSC 92833, 2-[2-(5,6-dimethyl-1H-benzoimidazol-2-yl)ethenyl]-5,6-dimethyl-1H-benzoimidazole]: the MIC in experiment [1] and in experiment [2] was greater than 12.6 µg/mL in each case.

Turning to `N=C(N)c1ccc2cc(/C=C/c3cc4ccc(C(=N)N)cc4o3)oc2c1` [NSC 294199, 2-[(E)-2-(6-carbamimidoylbenzofuran-2-yl)ethenyl]benzofuran-6-carboximidamide], the MIC in experiment [1] stood at 16.7 µg/mL (≈ 48.4 µM); in experiment [2], 8.34 µg/mL (≈ 24.2 µM).

For the compound `N=C(N)c1ccc(-c2ccc(-c3ccc(C(=N)N)cc3)s2)cc1` [NSC 300510, 4-[5-(4-carbamimidoylphenyl)thiophen-2-yl]benzenecarboximidamide], the MIC in experiment [1] is greater than 15.7 µg/mL; in experiment [2] it was 15.7 µg/mL (≈ 49.1 µM).

In the case of `C(=C\c1cc2cc(C3=NCCN3)ccc2s1)/c1ccc(C2=NCCN2)cc1` [NSC 317883, 2-[2-[(E)-2-[4-(4,5-dihydro-1H-imidazol-2-yl)phenyl]ethenyl]benzothiophen-5-yl]-4,5-dihydro-1H-imidazole], the MIC in experiment [1] and in experiment [2] was 17.8 µg/mL (≈ 47.8 µM) throughout.

Turning to `N=C(N)c1ccc(-c2[nH]c3cc(C(=N)N)ccc3c2N)cc1` [NSC 300509, 3-amino-2-(4-carbamimidoylphenyl)-1H-indole-6-carboximidamide], the MIC in experiment [1] and in experiment [2] was greater than 14.6 µg/mL each time.

With `CC(O)C(=O)O.N=C(N)c1ccc(-c2cc3ccc(C(=N)N)cc3s2)cc1` [NSC 240890, 2-(4-carbamimidoylphenyl)benzothiophene-6-carboximidamide; 2-hydroxypropanoic acid], the MIC in experiment [1] and in experiment [2] was greater than 19 µg/mL each time.

`N=C(N)c1ccc2oc(CCc3cc4cc(C(=N)N)ccc4o3)cc2c1` [NSC 266477, 2-[2-(5-carbamimidoylbenzofuran-2-yl)ethyl]benzofuran-5-carboximidamide]: the MIC in experiment [1] and in experiment [2] was greater than 16.8 µg/mL throughout.

`O=C(Nc1ccc(C2=NCCN2)cc1)c1cc2cc(C3=NCCN3)ccc2o1` [NSC 290111, 5-(4,5-dihydro-1H-imidazol-2-yl)-N-[4-(4,5-dihydro-1H-imidazol-2-yl)phenyl]benzofuran-2-carboxamide]: the MIC in experiment [1] is greater than 17.8 µg/mL; in experiment [2], 17.8 µg/mL (≈ 47.8 µM).

As to `N=C(N)c1ccc(-n2nc3ccc(C(=N)N)cc3n2)cc1` [NSC 240896, 2-(4-carbamimidoylphenyl)benzotriazole-5-carboximidamide], the MIC in experiment [1] and in experiment [2] was greater than 14.1 µg/mL in each case.

Take `NC(N)=Nc1ccc(-c2cc3cc(N=C(N)N)ccc3s2)cc1` [NSC 341910, 2-[2-[4-(diaminomethylideneamino)phenyl]benzothiophen-5-yl]guanidine]: the MIC in experiment [1] is greater than 15.9 µg/mL; in experiment [2], 15.9 µg/mL (≈ 48.9 µM).

Consider `N=C(N)c1ccc(-n2cc3cc(C(=N)N)ccc3n2)cc1` [NSC 240895, 2-(4-carbamimidoylphenyl)indazole-5-carboximidamide], for which the MIC in experiment [1] and in experiment [2] was greater than 14 µg/mL throughout.

With `N=C(N)c1ccc2nc(/C=C/c3nc4ccc(C(=N)N)cc4[nH]3)[nH]c2c1` [NSC 266475, 2-[(E)-2-(5-carbamimidoyl-3H-benzoimidazol-2-yl)ethenyl]-3H-benzoimidazole-5-carboximidamide], the MIC in experiment [1] and in experiment [2] was greater than 16.7 µg/mL each time.

Consider `OCCn1c(C=Cc2nc3ccccc3[nH]2)nc2ccccc21` [NSC 103701, 2-[2-[2-(1H-benzoimidazol-2-yl)ethenyl]benzoimidazol-1-yl]ethanol], for which the MIC in experiment [1] and in experiment [2] was greater than 12.2 µg/mL each time.

In the case of `N=C(N)c1ccc(-c2[nH]c3cc(C(=N)N)ccc3c2-c2ccccc2)cc1` [NSC 240897, 2-(4-carbamimidoylphenyl)-3-phenyl-1H-indole-6-carboximidamide], the MIC in experiment [1] was determined as 17 µg/mL (≈ 48.2 µM); in experiment [2], 8.52 µg/mL (≈ 24.1 µM).

For `C(=C\c1cc2ccc(C3=NCCN3)cc2o1)/c1cc2ccc(C3=NCCN3)cc2o1` [NSC 294494, 2-[2-[(E)-2-[6-(4,5-dihydro-1H-imidazol-2-yl)benzofuran-2-yl]ethenyl]benzofuran-6-yl]-4,5-dihydro-1H-imidazole], the MIC in experiment [1] and in experiment [2] was 18.8 µg/mL (≈ 47.3 µM) each time.

As for `Nc1ccc(C2=Cc3ccc(N)cc3S2(=O)=O)cc1` [NSC 266482, 2-(4-aminophenyl)-1,1-dioxo-benzothiophen-6-amine], the MIC in experiment [1] and in experiment [2] was greater than 10.9 µg/mL each time.

Consider `N=C(N)c1ccc(-c2nc3ccc(C(=N)N)cc3[nH]2)cc1` [NSC 240894, 2-(4-carbamimidoylphenyl)-3H-benzoimidazole-5-carboximidamide], for which the MIC in experiment [1] and in experiment [2] was greater than 14 µg/mL each time.

Turning to `N=C(N)c1ccc(NC(=O)c2cc3ccc(C(=N)N)cc3o2)cc1` [NSC 294207, 6-carbamimidoyl-N-(4-carbamimidoylphenyl)benzofuran-2-carboxamide], the MIC in experiment [1] and in experiment [2] was greater than 15.8 µg/mL throughout.

For “Glycine, N-acetyl-, compound with 2,2′-(1,{2-ethenediyl)bis[5-benzofurancarboximidamide]} (2:1) [NSC 341082]”, the “MIC B. anthracis vegetative cells” value in experiment [1] is greater than 23.16 µg/mL. Moreover, the “MIC B. anthracis spores” value in experiment [2] was greater than 23.16 µg/mL.

Turning to `c1cc2cc(-c3cc4ccc(C5=NCCN5)cc4[nH]3)[nH]c2cc1C1=NCCN1` [NSC 330688, 6-(4,5-dihydro-1H-imidazol-2-yl)-2-[6-(4,5-dihydro-1H-imidazol-2-yl)-1H-indol-2-yl]-1H-indole], the MIC in experiment [1] was 1.1 µg/mL (≈ 2.99 µM); in experiment [2], 0.551 µg/mL (≈ 1.5 µM).

`C(=Cc1nc2ccccc2[nH]1)c1nc2ccccc2[nH]1` [NSC 103699, 2-[2-(1H-benzoimidazol-2-yl)ethenyl]-1H-benzoimidazole]: the MIC in experiment [1] and in experiment [2] was greater than 10.4 µg/mL in each case.

For the compound `c1cc(-c2cc3ccc(C4=NCCN4)cc3s2)ccc1C1=NCCN1` [NSC 278996, 2-[2-[4-(4,5-dihydro-1H-imidazol-2-yl)phenyl]benzothiophen-6-yl]-4,5-dihydro-1H-imidazole], the MIC in experiment [1] and in experiment [2] was greater than 16.8 µg/mL throughout.
